Ends that are not written are not given here. Peptide text beside a SMILES is read from it. * marks the point of attachment. Biotin = O=C1N[C@H]2[C@H](CS[C@H]2CCCCC(=O)*)N1
Assays:
[1] = tested on: PDZ protein (GST-PDZ fusion); assay: G' assay (10 uM PL peptide), results of TABLE 7 and TABLE 12; type: binding
Outline: (§1)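 Biotin-PL peptide (N-term label), 10 uM vs GST-PDZ; protein 5 ug/ml by default. A450 nm binned: 1 = 0-1, 2 = 1-2, 3 = 2-3, 4 = 3-4, 5 = >4 on >2 repeats, 0 = no binding.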

[2] = biological target: T1, PDZ protein (GST-PDZ fusion) (Homo sapiens, UniProt Q5TCQ9); assay: as above; type: binding
T1 construct: made in house; host or cells: E. coli (DH5alpha, BL21 or JM109)
T1 sequence (Q5TCQ9 1-1481): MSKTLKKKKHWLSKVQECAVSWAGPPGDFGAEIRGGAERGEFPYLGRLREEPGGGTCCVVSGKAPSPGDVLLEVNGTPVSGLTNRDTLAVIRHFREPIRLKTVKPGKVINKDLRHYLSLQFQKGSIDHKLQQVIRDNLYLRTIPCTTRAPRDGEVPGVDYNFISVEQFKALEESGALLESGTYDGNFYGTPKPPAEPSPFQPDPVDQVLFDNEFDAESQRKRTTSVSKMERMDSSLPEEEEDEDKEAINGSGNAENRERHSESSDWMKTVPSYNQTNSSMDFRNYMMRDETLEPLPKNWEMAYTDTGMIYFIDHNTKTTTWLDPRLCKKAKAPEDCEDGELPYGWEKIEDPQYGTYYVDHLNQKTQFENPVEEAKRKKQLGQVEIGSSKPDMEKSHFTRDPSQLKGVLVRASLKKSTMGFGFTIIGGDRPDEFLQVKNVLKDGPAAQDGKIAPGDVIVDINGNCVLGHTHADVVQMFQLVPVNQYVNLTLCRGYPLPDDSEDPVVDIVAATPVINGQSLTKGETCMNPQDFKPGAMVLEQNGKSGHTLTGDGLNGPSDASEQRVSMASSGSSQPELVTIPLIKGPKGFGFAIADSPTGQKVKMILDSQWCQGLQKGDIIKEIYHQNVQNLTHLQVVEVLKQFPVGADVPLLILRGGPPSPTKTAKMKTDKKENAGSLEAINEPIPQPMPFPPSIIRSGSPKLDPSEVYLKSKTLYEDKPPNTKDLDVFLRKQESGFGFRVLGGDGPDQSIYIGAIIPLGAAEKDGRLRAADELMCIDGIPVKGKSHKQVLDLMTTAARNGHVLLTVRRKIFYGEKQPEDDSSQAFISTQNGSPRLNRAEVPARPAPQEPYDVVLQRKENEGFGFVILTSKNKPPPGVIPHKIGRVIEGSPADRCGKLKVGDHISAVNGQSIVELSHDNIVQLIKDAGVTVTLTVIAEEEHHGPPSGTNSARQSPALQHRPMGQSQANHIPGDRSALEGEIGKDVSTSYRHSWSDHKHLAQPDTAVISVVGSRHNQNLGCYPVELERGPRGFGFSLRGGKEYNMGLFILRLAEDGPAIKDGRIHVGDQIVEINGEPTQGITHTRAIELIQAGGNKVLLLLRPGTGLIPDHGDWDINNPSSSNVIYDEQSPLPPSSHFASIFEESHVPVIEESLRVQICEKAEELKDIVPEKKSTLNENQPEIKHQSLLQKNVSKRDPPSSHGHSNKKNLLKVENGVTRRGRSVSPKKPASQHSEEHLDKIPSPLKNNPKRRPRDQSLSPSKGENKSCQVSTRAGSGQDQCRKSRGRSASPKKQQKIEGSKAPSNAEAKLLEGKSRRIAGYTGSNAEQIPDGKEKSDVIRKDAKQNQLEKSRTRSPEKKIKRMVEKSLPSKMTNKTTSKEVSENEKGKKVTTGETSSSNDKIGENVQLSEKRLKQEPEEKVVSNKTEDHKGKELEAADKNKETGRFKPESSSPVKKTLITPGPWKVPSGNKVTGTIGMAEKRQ
Outline: as §1

[3] = PDZ HEMBA 1003117, PDZ Domain 1

| Compound | Classification ([1]; PDZ BAI-1, PDZ Domain 2) | Classification ([1]; PDZ BAI-1, PDZ Domain 5) | Classification ([1]; PDZ BAI-1, PDZ Domain 6) | Classification [1, 3] | Classification ([2]; PDZ KIAA1634, PDZ Domain 1) | Classification ([2]; PDZ KIAA1634, PDZ Domain 2) | Classification ([2]; PDZ KIAA1634, PDZ Domain 5) | Classification ([1]; PDZ SHANK, PDZ Domain 1) | other results |
| --- | --- | --- | --- | --- | --- | --- | --- | --- | --- |
| CSCC[C@H](NC(=O)[C@H](C)NC(=O)[C@H](CCCNC(=N)N)NC(=O)CNC(=O)[C@@H](NC(=O)[C@H](Cc1c[nH]c2ccccc12)NC(=O)[C@H](CCCNC(=N)N)NC(=O)CNC(=O)CCCC[C@@H]1SC[C@@H]2NC(=O)N[C@@H]21)[C@@H](C)O)C(=O)N[C@@H](CO)C(=O)N[C@@H](C)C(=O)N[C@@H](Cc1c[nH]c2ccccc12)C(=O)N[C@@H](CCCCN)C(=O)N1CCC[C@H]1C(=O)N[C@H](C(=O)N[C@@H](CCCNC(=N)N)C(=O)N[C@@H](CCCNC(=N)N)C(=O)N[C@@H](CCC(=O)O)C(=O)N[C@H](C(=O)N[C@@H](CCC(=O)O)C(=O)N[C@H](C(=O)O)C(C)C)[C@@H](C)O)[C@@H](C)O [HPV E6 #35 (modified)] (Biotin-GRWTGRAMSAWKPTRRETEV-OH; C-terminus assumed) | 5 (A450 nm of 4 more than 2× repeated) | 5 (A450 nm of 4 more than 2× repeated) | 3 (A450 nm 2-3) | 1 (A450 nm 0-1) | 5 (A450 nm of 4 more than 2× repeated) | 3 (A450 nm 2-3) | 3 (A450 nm 2-3) | – | Classification ([1]; PDZ BAI-1, PDZ Domain 3): 4 (A450 nm 3-4); Classification ([1]; PDZ BAI-1, PDZ Domain 4): 5 (A450 nm of 4 more than 2× repeated); Classification ([1]; PDZ Connector Enhancer, PDZ Domain 1): 1 (A450 nm 0-1); Classification ([1]; PDZ FLJ 00011, PDZ Domain 1): 3 (A450 nm 2-3); Classification ([1]; PDZ FLJ 11215, PDZ Domain 1): 4 (A450 nm 3-4); Classification ([2]; PDZ KIAA1634, PDZ Domain 4): 2 (A450 nm 1-2) |
| QATSRNGHSARQHVVADTEL (Biotin-QATSRNGHSARQHVVADTEL) [CD34] | – | – | 1 (A450 nm 0-1) | – | – | – | 1 (A450 nm 0-1) | 1 (A450 nm 0-1) | – |
| CC[C@H](C)[C@H](NC(=O)[C@H](CC(=O)O)NC(=O)[C@H](CCC(=O)O)NC(=O)[C@H](CCCNC(=N)N)NC(=O)[C@@H](NC(=O)CCCC[C@@H]1SC[C@@H]2NC(=O)N[C@@H]21)[C@@H](C)O)C(=O)N[C@@H](Cc1ccc(O)cc1)C(=O)N[C@H](C(=O)N[C@@H](CC(N)=O)C(=O)N[C@@H](Cc1ccc(O)cc1)C(=O)N1CCC[C@H]1C(=O)N[C@H](C(=O)N[C@@H](Cc1ccccc1)C(=O)N[C@@H](CO)C(=O)N[C@@H](CCCNC(=N)N)C(=O)N[C@@H](CCCNC(=N)N)C(=O)N1CCC[C@H]1C(=O)N[C@@H](CCCCN)C(=O)N[C@H](C(=O)N[C@@H](CCCNC(=N)N)C(=O)N[C@H](C(=O)O)C(C)C)[C@@H](C)O)[C@@H](C)O)C(C)C [DNAM-1] (Biotin-TREDIYVNYPTFSRRPKTRV-OH; C-terminus assumed) | 5 (A450 nm of 4 more than 2× repeated) | – | – | – | 5 (A450 nm of 4 more than 2× repeated) | – | – | – | – |
| APC—adenomatous polyposis coli protein (ESSGTQSPKRHSGSYLVTSV) | 1 (A450 nm 0-1) | 1 (A450 nm 0-1) | – | – | 1 (A450 nm 0-1) | 1 (A450 nm 0-1) | – | – | Classification ([1]; PDZ FLJ 00011, PDZ Domain 1): 1 (A450 nm 0-1) |
| ARHRVTSYTSSSVNVSSNL (Biotin-ARHRVTSYTSSSVNVSSNL) [IL-8RB] | 1 (A450 nm 0-1) | – | 1 (A450 nm 0-1) | – | 1 (A450 nm 0-1) | – | 1 (A450 nm 0-1) | – | Classification ([1]; PDZ Novel PDZ, PDZ Domain 2): 1 (A450 nm 0-1) |
| PYSELNYETSHYPASPDSWV (Biotin-PYSELNYETSHYPASPDSWV) [catenin - delta 2] | – | – | – | 1 (A450 nm 0-1) | – | – | 3 (A450 nm 2-3) | – | Classification ([1]; PDZ BAI-1, PDZ Domain 3): 1 (A450 nm 0-1) |
| CC(C)C[C@H](NC(=O)[C@H](CC(C)C)NC(=O)[C@@H](NC(=O)[C@H](CC(=O)O)NC(=O)CCCC[C@@H]1SC[C@@H]2NC(=O)N[C@@H]21)[C@@H](C)O)C(=O)N[C@@H](CC(C)C)C(=O)N[C@H](C(=O)N[C@@H](CCC(=O)O)C(=O)N[C@@H](CC(N)=O)C(=O)N[C@@H](CCC(=O)O)C(=O)NCC(=O)N[C@@H](CC(=O)O)C(=O)N[C@@H](CCCCN)C(=O)N[C@H](C(=O)N[C@@H](CCC(=O)O)C(=O)N[C@@H](CCC(=O)O)C(=O)N[C@@H](CCC(N)=O)C(=O)N[C@H](C(=O)N[C@@H](CO)C(=O)N[C@@H](Cc1ccc(O)cc1)C(=O)N[C@H](C(=O)O)C(C)C)C(C)C)[C@@H](C)O)[C@@H](C)O [5H2B_HUMAN] (Biotin-DTLLLTENEGDKTEEQVSYV-OH; C-terminus assumed) | – | – | – | 1 (A450 nm 0-1) | – | 5 (A450 nm of 4 more than 2× repeated) | – | – | Classification ([1]; PDZ BAI-1, PDZ Domain 3): 4 (A450 nm 3-4) |
| CC[C@H](C)[C@H](NC(=O)CNC(=O)[C@H](CO)NC(=O)[C@H](Cc1ccccc1)NC(=O)[C@@H](NC(=O)[C@H](CS)NC(=O)CNC(=O)CNC(=O)[C@H](C)NC(=O)[C@@H]1CCCN1C(=O)[C@@H](NC(=O)[C@@H]1CCCN1C(=O)CCCC[C@@H]1SC[C@@H]2NC(=O)N[C@@H]21)[C@@H](C)CC)[C@@H](C)O)C(=O)N[C@@H](Cc1ccccc1)C(=O)N1CCC[C@H]1C(=O)N[C@H](C(=O)N[C@@H](CC(C)C)C(=O)N[C@H](C(=O)N[C@@H](CO)C(=O)N1CCC[C@H]1C(=O)N[C@@H](CC(C)C)C(=O)O)[C@@H](C)O)[C@@H](C)O [KIA 1481] (Biotin-PIPAGGCTFSGIFPTLTSPL-OH; C-terminus assumed) | 2 (A450 nm 1-2) | 3 (A450 nm 2-3) | 2 (A450 nm 1-2) | – | 2 (A450 nm 1-2) | 1 (A450 nm 0-1) | 1 (A450 nm 0-1) | 5 (A450 nm of 4 more than 2× repeated) | Classification ([1]; PDZ BAI-1, PDZ Domain 4): 1 (A450 nm 0-1); Classification ([1]; PDZ FLJ00011 (also printed FLJ 00011), PDZ Domain 1): 2 (A450 nm 1-2); Classification ([1]; PDZ Novel PDZ, PDZ Domain 1): 1 (A450 nm 0-1); Classification ([1]; PDZ Novel PDZ, PDZ Domain 2): 1 (A450 nm 0-1) |
| ISGTPTSTMVHGMTSSSSVV (Biotin-ISGTPTSTMVHGMTSSSSVV) [Clasp-2] | 1 (A450 nm 0-1) | 1 (A450 nm 0-1) | – | – | 1 (A450 nm 0-1) | 1 (A450 nm 0-1) | – | – | – |
| LASKSAEEGKQIPDSLSTDL (Biotin-LASKSAEEGKQIPDSLSTDL) [Dock2] | – | – | 1 (A450 nm 0-1) | 1 (A450 nm 0-1) | – | – | 1 (A450 nm 0-1) | 1 (A450 nm 0-1) | – |
| ALVLIAFCIIRRRPSAYQAL (Biotin-ALVLIAFCIIRRRPSAYQAL) [CD68] | 3 (A450 nm 2-3) | – | – | – | 2 (A450 nm 1-2) | – | – | 1 (A450 nm 0-1) | – |

From patent US20050282743A1, “Molecular interactions in cells” (Arbor Vita Corporation, priority 2001, published 2005)
